Like-named read-outs stand apart in the source and are kept apart here. Values belong to the molecule of their own block, whether it stands above or below them. Starred links: 1 amine or outer side, 2 acyl side, 3 side chain; linkers in the order of their positions; H or OH if unused. Positions of bridges follow the written chain, without caps; N, C: chain ends. Non-standard residues stand in square brackets, D forms with d. Residues, ends and D or L forms follow the SMILES beside them. ξ: configuration not given here. X17 = O=C([C@@H]1C[C@@H](c2nn[nH]n2)CN1[*:1])[*:2]; ξPro(4R-OH) = O=C(O)C1C[C@@H](O)CN1; Hyp = O=C(O)[C@@H]1C[C@@H](O)CN1; Cha = N[C@@H](CC1CCCCC1)C(=O)O; dNMeNle = CCCC[C@@H](NC)C(=O)O; Thr(3ξ) = CC(O)[C@H](N)C(=O)O; NMeNle = CCCC[C@H](NC)C(=O)O; NMeA = CN[C@@H](C)C(=O)O; Orn = NCCC[C@H](N)C(=O)O; Dab = NCC[C@H](N)C(=O)O; Dap = NC[C@H](N)C(=O)O; ξPip = O=C(O)C1CCCCN1; ξC = NC(CS)C(=O)O; Sar = CNCC(=O)O
Experiments:
[1] = molecular target: T1, LK35.2-hPD-L1 cells / PE-labeled PD-1-Ig (Homo sapiens, UniProt Q9NZQ7); assay: LK35.2-hPD-L1 cell binding high-content screening assay; assay type: cell-based; conditions: cluster symbol, read-out: CBA IC50 cluster
T1 construct: expressed in transfected cells; host or cells: LK35.2 mouse B cell line
Summary of the method: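 Compound effect on PD-1/PD-L1 binding is measured by imaging cell-associated phycoerythrin signal. Human PD-1-Ig (PE on Ig tag, 1 nM final) is applied with compound to a murine B cell line overexpressing human PD-L1 for 1 h at 37 °C in serum-containing RPMI.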

[2] = molecular target: T2, Human PD-L1/PD-1 (Homo sapiens, UniProt Q9NZQ7); assay: HTRF PD-1-Ig/PD-L1-His binding assay (human PD-L1); conditions: cluster symbol; read-out: HTRF IC50 cluster
T2 construct: made in house; host or cells: HEK293T
Summary of the method: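 Ig- and His-fused extracellular PD-1/PD-L1 binding in BSA/Tween-20 dPBS. HTRF with Eu anti-Ig (1 nM final) and APC anti-His (20 nM final).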

[3] = cell binding assay, cell line not given
[4] = cell line of CBA not given (LK35.2-hPD-L1 or 293T-hPD-L1)

T2 sequence (Q9NZQ7 with tags, fused parts or gaps): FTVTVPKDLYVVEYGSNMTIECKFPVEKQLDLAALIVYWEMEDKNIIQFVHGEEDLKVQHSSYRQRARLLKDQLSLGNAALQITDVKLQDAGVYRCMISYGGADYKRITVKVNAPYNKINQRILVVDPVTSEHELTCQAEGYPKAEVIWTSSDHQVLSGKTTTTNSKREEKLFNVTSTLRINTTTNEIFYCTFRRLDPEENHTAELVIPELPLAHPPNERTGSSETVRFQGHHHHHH
T1 sequence (Q9NZQ7 19-290): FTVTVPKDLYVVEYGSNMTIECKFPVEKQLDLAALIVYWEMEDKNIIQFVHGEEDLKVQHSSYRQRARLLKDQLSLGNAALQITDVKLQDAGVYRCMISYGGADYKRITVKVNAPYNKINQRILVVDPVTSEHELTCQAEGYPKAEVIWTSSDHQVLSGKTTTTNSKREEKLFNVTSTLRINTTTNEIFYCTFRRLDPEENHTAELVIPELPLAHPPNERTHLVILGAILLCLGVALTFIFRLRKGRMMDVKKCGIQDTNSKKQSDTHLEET

Structure (SMILES): CCCC[C@H]1C(=O)N(C)[C@@H](CCCC)C(=O)N[C@@H](CCCNC(=N)N)C(=O)N[C@H](C(=O)NCC(N)=O)CSCC(=O)N[C@@H](Cc2ccccc2)C(=O)N(C)[C@@H](C)C(=O)N[C@@H](CC(N)=O)C(=O)N2CCC[C@H]2C(=O)N[C@@H](Cc2cnc[nH]2)C(=O)N[C@@H](C(C)O)C(=O)N(C)CC(=O)N[C@@H](Cc2c[nH]c3ccccc23)C(=O)N[C@@H](CO)C(=O)N[C@@H](Cc2c[nH]c3ccccc23)C(=O)N1C (stereo partly drawn) [Example 6005] ({CH2CO}-F[NMeA]NPH[Thr(3ξ)][Sar]WSW[NMeNle][NMeNle]RCG-NH2; thioether N-14)
- IC50 [1, 3]: 4.78 to 72.9 nM
- IC50 [2]: 6.76 to 30.3 nM

Structure (SMILES): CCCC[C@H]1C(=O)N(C)[C@@H](CCCC)C(=O)N[C@@H](CC(C)C)C(=O)N[C@H](C(=O)NCC(N)=O)CSCC(=O)N[C@@H](Cc2ccc(O)cc2)C(=O)N(C)[C@@H](C)C(=O)N[C@@H](CC(N)=O)C(=O)N2CCC[C@H]2C(=O)N[C@@H](CN)C(=O)N[C@@H](CC2CCCCC2)C(=O)N2C[C@H](O)C[C@H]2C(=O)N[C@@H](Cc2c[nH]c3ccccc23)C(=O)N[C@@H](CO)C(=O)N[C@@H](Cc2c[nH]c3ccccc23)C(=O)N1C [Example 5082] ({CH2CO}-Y[NMeA]NP[Dap][Cha][Hyp]WSW[NMeNle][NMeNle]LCG-NH2; thioether N-14)
- IC50 [1, 3]: 0.158 to 4.71 nM
- IC50 [2]: 0.385 to 6.74 nM

Structure (SMILES): CCCC[C@H]1C(=O)N(C)CC(=O)N[C@@H](CC(=O)O)C(=O)N[C@@H](C(C)C)C(=O)N(C)[C@@H](Cc2ccccc2)C(=O)N[C@@H](Cc2ccc(O)cc2)C(=O)N(C)CC(=O)N[C@@H](Cc2c[nH]c3ccccc23)C(=O)N[C@@H](Cc2ccc(O)cc2)C(=O)N[C@@H](CC(C)C)C(=O)N[C@H](C(=O)NCC(N)=O)C(C)(C)SCC(=O)N[C@@H](Cc2ccccc2)C(=O)N(C)[C@@H](Cc2ccccc2)C(=O)N1C [Example 3087] (HELM PEPTIDE1{[O=C(C[*:3])[*:2]].F.[meF].[CCCC[C@@H](C(=O)[*:2])N(C)[*:1]].[Sar].D.V.[meF].Y.[Sar].W.Y.L.[Pen].G.[am]}$PEPTIDE1,PEPTIDE1,1:R3-14:R3$$$V2.0)
- IC50 [1, 4]: > 74.3 nM
- IC50 [2]: > 30.5 nM

Structure (SMILES): CCCC[C@H]1C(=O)N(C)[C@@H](CCCC)C(=O)N[C@@H](CCCNC(=N)N)C(=O)NC(C(=O)NCC(N)=O)CSCC(=O)N[C@@H](Cc2ccc(O)cc2)C(=O)N(C)[C@@H](C)C(=O)N[C@@H](CC(N)=O)C(=O)N2CCC[C@H]2C(=O)N[C@@H](CC(N)=O)C(=O)N[C@@H](CC(C)C)C(=O)N2CCC[C@H]2C(=O)N[C@@H](Cc2c[nH]c3ccccc23)C(=O)N[C@@H](CO)C(=O)N[C@@H](Cc2c[nH]c3ccccc23)C(=O)N1C (stereo partly drawn) [Example 9059] ({CH2CO}-Y[NMeA]NPNLPWSW[NMeNle][NMeNle]R[ξC]G-NH2; thioether N-14)
- IC50 [1, 3]: 4.78 to 72.9 nM
- IC50 [2]: 6.76 to 30.3 nM

Continued, values first:

- IC50 [1, 3]: 0.158 to 4.71 nM
- IC50 [2]: 0.385 to 6.74 nM
Structure (SMILES): CCCC[C@H]1C(=O)N(C)[C@@H](CCCC)C(=O)N[C@@H](CCN)C(=O)N[C@H](C(=O)NCC(N)=O)CSCC(=O)N[C@@H](Cc2ccc(O)cc2)C(=O)N(C)[C@@H](C)C(=O)N[C@@H](CC(N)=O)C(=O)N2CCC[C@H]2C(=O)N[C@@H](Cc2c[nH]cn2)C(=O)N[C@@H](CCC(=O)O)C(=O)N2C[C@H](c3nn[nH]n3)C[C@H]2C(=O)N[C@@H](Cc2c[nH]c3ccccc23)C(=O)N[C@@H](CCN)C(=O)N[C@@H](Cc2c[nH]c3ccccc23)C(=O)N1C [Example 13004] ({CH2CO}-Y[NMeA]NPHE[X17]W[Dab]W[NMeNle][NMeNle][Dab]CG-NH2; thioether N-14)

- IC50 [1, 4]: 0.158 to 4.71 nM
- IC50 [2]: 6.76 to 30.3 nM
Structure (SMILES): CCCC[C@@H]1C(=O)N(C)[C@H](CCCC)C(=O)N[C@@H](CCCN)C(=O)N[C@@H](C(=O)NCC(N)=O)CSCC(=O)N[C@@H](Cc2ccc(O)cc2)C(=O)N2CCCCC2C(=O)N[C@H](CC(=O)O)C(=O)N2CCC[C@H]2C(=O)N[C@H](Cc2c[nH]cn2)C(=O)N[C@@H](CCC(=O)O)C(=O)N2C[C@H](O)CC2C(=O)N[C@H](Cc2c[nH]c3ccccc23)C(=O)N[C@@H](CO)C(=O)N[C@@H](Cc2c[nH]c3ccccc23)C(=O)N1C (stereo partly drawn) [Example 1219] ({CH2CO}-Y[ξPip][dD]P[dH]E[ξPro(4R-OH)][dW]SW[dNMeNle][dNMeNle][Orn][dC]G-NH2; thioether N-14)

— patent US9850283B2, “Macrocyclic inhibitors of the PD-1/PD-L1 and CD80(B7-1)/PD-L1 protein/protein interactions” (BRISTOL-MYERS SQUIBB COMPANY, priority 2013, dated 2017)
